From patent US10172868B2, “Substituted quinazolines for inhibiting kinase activity” (NeuPharma, Inc., priority 2013, dated 2019)

Experiments:
EGFR (ErbB1) = EGFR (ErbB1) (Homo sapiens (Human), UniProt P00533); test: Z'-LYTE kinase inhibition assay, EGFR; assay type: biochemical; conditions: for inhibition at 0.041 µM: read-out: % inhibition against EGFR (Compound at 0.041 μM); for IC50: read-out: IC50 against EGFR
Outline: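 Z'-LYTE FRET assay run with 1.1-5.25 ng EGFR and 2 μM peptide substrate in 50 mM HEPES pH 7.5, 10 mM MgCl2, 2 mM MnCl2, 1 mM EGTA, 1 mM DTT, 0.01% BRIJ-35, 1% DMSO. Kinase reaction 60 min at room temperature, then 60 min development; IC50 from 10-point 3-fold titrations.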

EGFR (ErbB1) T790M L858R = EGFR (ErbB1) T790M L858R (Homo sapiens (Human), UniProt P00533, L858R/T790M); test: Z'-LYTE kinase inhibition assay, EGFR L858R/T790M; assay type: biochemical; conditions: for inhibition at 0.0137 µM: read-out: % inhibition against EGFR L858R/T790M (Compound at 0.0137 μM); for IC50: read-out: IC50 against EGFR L858R/T790M; for inhibition at 1 µM: read-out: % inhibition against EGFR L858R/T790M (Compound at 1 μM)
EGFR (ErbB1) T790M L858R, sequence (P00533 25-1210 T790M/L858R): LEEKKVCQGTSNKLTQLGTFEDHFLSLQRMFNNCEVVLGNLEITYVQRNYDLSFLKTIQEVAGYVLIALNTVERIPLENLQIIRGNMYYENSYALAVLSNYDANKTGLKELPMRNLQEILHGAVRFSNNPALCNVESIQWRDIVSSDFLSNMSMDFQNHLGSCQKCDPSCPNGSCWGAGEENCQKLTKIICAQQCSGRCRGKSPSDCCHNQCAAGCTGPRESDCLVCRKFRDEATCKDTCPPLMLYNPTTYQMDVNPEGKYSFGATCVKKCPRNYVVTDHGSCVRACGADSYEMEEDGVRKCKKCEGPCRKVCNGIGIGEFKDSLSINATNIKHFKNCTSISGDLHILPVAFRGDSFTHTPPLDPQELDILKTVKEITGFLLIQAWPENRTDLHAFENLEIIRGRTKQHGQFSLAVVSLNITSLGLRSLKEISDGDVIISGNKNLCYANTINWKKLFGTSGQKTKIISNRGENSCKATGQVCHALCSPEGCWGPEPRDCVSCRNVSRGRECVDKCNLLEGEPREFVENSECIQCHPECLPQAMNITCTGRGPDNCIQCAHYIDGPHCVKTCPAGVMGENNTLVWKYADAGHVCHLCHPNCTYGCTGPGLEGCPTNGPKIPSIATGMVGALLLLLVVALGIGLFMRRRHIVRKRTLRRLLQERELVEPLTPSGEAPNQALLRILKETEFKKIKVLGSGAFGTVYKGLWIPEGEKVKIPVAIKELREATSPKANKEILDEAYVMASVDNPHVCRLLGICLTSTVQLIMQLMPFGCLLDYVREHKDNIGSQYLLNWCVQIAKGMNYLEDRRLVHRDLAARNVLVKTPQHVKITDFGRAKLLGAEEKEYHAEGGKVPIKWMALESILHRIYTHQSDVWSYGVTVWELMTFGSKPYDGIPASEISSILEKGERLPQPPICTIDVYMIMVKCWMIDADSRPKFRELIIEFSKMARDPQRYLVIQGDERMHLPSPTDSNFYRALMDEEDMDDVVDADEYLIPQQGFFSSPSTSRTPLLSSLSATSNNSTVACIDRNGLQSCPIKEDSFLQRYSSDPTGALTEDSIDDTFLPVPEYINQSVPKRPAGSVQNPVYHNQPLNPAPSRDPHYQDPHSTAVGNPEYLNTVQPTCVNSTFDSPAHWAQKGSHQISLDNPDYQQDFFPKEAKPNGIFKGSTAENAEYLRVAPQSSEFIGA
Outline: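 Z'-LYTE FRET peptide assay at 1% DMSO, 10-point 3-fold titrations; kinase/peptide mix in 50 mM HEPES pH 6.5, 0.01% BRIJ-35, 10 mM MgCl2, 1 mM EGTA, 0.02% NaN3. Kinase reaction ran 60 min at room temperature, followed by 60 min development and a fluorescence read. IC50 derived from the concentration series.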

H1975 tumor xenografts = test: Inhibition of tumor growth in H1975 xenograft model; assay type: in vivo, BALB/c female nude mice; conditions: QD x 14; for Tumor Volume Pre-treatment: baseline before treatment
Description: H1975 cells were implanted in BALB/c female nude mice and grown as tumor xenografts. When tumors achieved 120-200 mm^3, mice were assigned into treatment and control groups using randomized block design based upon their tumor volumes. Each group contained 6 tumor-bearing mice. Tumors were measured twice weekly in two dimensions using a caliper, and the tumor volume was calculated from two-dimensional measurements using the equation V=0.5×a×b^2 where a and b are the long and short diameters of the tumor, respectively. Relative tumor volume (RTV) was defined as TVt/TVi, the ratio of the volume on a given day (TVt) and the volume at the start of treatment (TVi). Relative tumor growth rate (T/C) was defined as RTVT/RTVC, the ratio of relative tumor volume of treatment group (RTVT) and relative tumor volume of control group (RTVC) on a given day.

A431 cells = test: cells; conditions: Homo sapiens, A-431, 72 h, read-out: IC50 in A431 cells
Description: Taxol (as a positive control. Sigma) and compounds were dissolved in DMSO (Sigma), and the final concentration of DMSO in the medium was 1%. Tumor cells were plated in 96-well plates at densities of about 4000 cells/well of a 96-well plate and allowed to adhere/grow for 24 h. They were then treated with various concentrations of drug for 72 h, 3-(4,5-Dimethylthiazol-2-yl)-2,5-diphenyltetrazolium bromide (MTT, Sigma) was used to determine the number of viable cells at the time of compound addition and the number of cells remaining after 72 h compound exposure. The number of cells remaining after 72 h was compared to the number of viable cells at the time of compound addition by measuring the absorbance at 570 nm, allowing for the calculation of growth inhibition.
(§4) All concentrations of compounds were tested in triplicate and controls were averaged over 4 wells. IC50 was calculated by plotting the concentration of compound vs the percentage of inhibition in treated wells using GraphPad Prism 5.
The scale utilized in Tables 5 is as follows: +++ less than 100 nM; ++ between 100 nM and 500 nM; and + greater than 500 nM.

H3255 cells = test: Inhibition of cancer cell growth, MTT assay, H3255; conditions: Homo sapiens, NCI-H3255, 72 h, read-out: IC50 in H3255 cells
Description: (§5) Inhibition of cell growth by compounds was measured using MTT assay (Mosmann, T., Journal of Immunological Methods, 1983, 65, 55-63). Tumor cell lines were purchased from ATCC (American Type Culture Collection, Manassas, Va.). All cell lines were maintained in RPMI 1640 (Hyclone) supplemented with 10% fetal bovine serum (FBS, Hyclone), glutamine (2 mM, Hyclone), and antibiotics (penicillin 100 U/mL and streptomycin 50 μg/mL) at 37° C. in a humidified atmosphere of 5% CO2 in air. Taxol (as a positive control. Sigma) and compounds were dissolved in DMSO (Sigma), and the final concentration of DMSO in the medium was 1%. Tumor cells were plated in 96-well plates at densities of about 4000 cells/well of a 96-well plate and allowed to adhere/grow for 24 h. They were then treated with various concentrations of drug for 72 h, 3-(4,5-Dimethylthiazol-2-yl)-2,5-diphenyltetrazolium bromide (MTT, Sigma) was used to determine the number of viable cells at the time of compound addition and the number of cells remaining after 72 h compound exposure. The number of cells remaining after 72 h was compared to the number of viable cells at the time of compound addition by measuring the absorbance at 570 nm, allowing for the calculation of growth inhibition.
as §4

H1975 cells = test: Inhibition of cancer cell growth, MTT assay, H1975; conditions: Homo sapiens, NCI-H1975, 72 h, read-out: IC50 in H1975 cells
Description: as §5, §4

FGFR1 = FGFR1 (Homo sapiens (Human), UniProt P11362); test: Z'-LYTE kinase inhibition assay, FGFR1; assay type: biochemical; conditions: compound at 0.041 μM; read-out: % inhibition against FGFR1
FGFR1, sequence (P11362 22-822): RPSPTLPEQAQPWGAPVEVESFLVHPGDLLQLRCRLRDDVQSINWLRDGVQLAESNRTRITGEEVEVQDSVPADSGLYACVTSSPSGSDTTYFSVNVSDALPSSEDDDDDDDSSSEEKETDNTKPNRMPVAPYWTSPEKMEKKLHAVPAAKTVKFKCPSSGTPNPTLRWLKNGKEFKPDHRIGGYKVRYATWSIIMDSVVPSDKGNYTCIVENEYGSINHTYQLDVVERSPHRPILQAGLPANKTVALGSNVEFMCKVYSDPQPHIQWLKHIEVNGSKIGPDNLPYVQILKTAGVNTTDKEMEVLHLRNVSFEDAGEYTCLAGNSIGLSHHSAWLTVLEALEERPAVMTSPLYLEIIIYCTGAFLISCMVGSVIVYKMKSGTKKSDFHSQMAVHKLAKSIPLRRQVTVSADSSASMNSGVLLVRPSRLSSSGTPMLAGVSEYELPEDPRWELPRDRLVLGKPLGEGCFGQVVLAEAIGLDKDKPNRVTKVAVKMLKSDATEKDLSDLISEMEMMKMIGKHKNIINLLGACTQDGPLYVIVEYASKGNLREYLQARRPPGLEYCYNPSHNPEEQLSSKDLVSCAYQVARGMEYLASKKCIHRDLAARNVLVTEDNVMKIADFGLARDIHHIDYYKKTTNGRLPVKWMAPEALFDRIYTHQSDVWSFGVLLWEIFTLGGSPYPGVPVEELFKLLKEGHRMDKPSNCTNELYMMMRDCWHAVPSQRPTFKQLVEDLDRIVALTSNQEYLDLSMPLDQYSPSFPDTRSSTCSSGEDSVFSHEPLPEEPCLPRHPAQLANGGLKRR
Description: (§1) Inhibitory activities of compounds against BTK, EGFR and EGFR mutants (EGFR L858R, EGFR T790M, EGFR L858R/T790M), FGFR1, FGFR2, JAK2, JAK3 and KDR were measured by Invitrogen using Z'-LYTE® Method as briefly described in the following.
(§2) Test Compounds are screened in 1% DMSO (final) in the well. For 10 point titrations, 3-fold serial dilutions are conducted from the starting concentration. All ATP Solutions are diluted to a 4× working concentration in Kinase Buffer (50 mM HEPES pH 7.5, 0.01% BRIJ-35, 10 mM MgCl2, 1 mM EGTA). Peptide/Kinase Mixtures are diluted to a 2× working concentration in the appropriate Kinase Buffers as described below.
(v) Peptide/Kinase Mixtures for Measurement of FGFR1:
The 2×FGFR1/Tyr 04 mixture is prepared in 50 mM HEPES pH 7.5, 0.01% BRIJ-35, 10 mM MgCl2, 4 mM MnCl2, 1 mM EGTA, 2 mM DTT. The final 10 μL Kinase Reaction consists of 0.41-3.5 ng FGFR1 and 2 μM Tyr 04 in 50 mM HEPES pH 7.5, 0.01% BRIJ-35, 10 mM MgCl2, 2 mM MnCl2, 1 mM EGTA, 1 mM DTT. After the 1 hour Kinase Reaction incubation, 5 μL of a 1:64 dilution of Development Reagent B is added.
Reaction starts by 30-second shaking of mixture consisting of 2.5 μL 4× test compound, […] 2× kinase reaction mixture and 2.5 μL 4×ATP Solution on Bar-coded Corning, low volume NBS, black 384-well plate (Corning Cat. #3676). Then the mixture is incubated for 60-minute at room temperature for the kinase reaction, followed by addition of 5 μL of a 1:1024 dilution of development reagent A and 30-second plate shake. The mixture is then incubated for another 60-minute at room temperature for development reaction. Finally fluorescence is read by plate reader.
(§3) To determine IC50 of a compound against EGFR, EGFR mutant and other kinases, a series of concentrations of the compound were tested for the inhibition. […] The scale utilized in Table 4 is as follows: +++ less than 100 nM, ++ 100-500 nM and + greater than 500 nM.

HCC827 cells = test: cells; conditions: Homo sapiens, HCC827, 72 h, read-out: IC50 in HCC827 cells
BTK = BTK (Homo sapiens (Human), UniProt Q06187); test: Z'-LYTE kinase inhibition assay, BTK; assay type: biochemical; conditions: read-out: IC50 against BTK
BTK, sequence (Q06187 whole entry): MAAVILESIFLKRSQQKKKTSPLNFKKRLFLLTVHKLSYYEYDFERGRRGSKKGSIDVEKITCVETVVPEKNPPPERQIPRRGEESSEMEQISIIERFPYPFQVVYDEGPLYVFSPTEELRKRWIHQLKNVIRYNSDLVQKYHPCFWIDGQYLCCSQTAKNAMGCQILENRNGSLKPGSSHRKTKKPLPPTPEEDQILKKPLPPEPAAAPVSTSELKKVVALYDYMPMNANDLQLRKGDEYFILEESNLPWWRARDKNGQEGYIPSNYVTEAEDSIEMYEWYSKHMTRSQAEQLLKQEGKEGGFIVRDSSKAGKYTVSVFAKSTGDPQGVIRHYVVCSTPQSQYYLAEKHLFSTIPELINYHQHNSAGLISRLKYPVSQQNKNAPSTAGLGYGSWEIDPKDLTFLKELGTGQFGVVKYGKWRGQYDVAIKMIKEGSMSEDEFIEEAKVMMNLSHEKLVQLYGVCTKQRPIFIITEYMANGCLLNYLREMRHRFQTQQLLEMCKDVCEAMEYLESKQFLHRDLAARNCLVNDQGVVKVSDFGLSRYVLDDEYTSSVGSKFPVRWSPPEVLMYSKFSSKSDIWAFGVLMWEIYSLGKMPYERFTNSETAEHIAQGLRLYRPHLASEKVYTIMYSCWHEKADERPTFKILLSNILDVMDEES
Description: as §1, §2
(v) Peptide/Kinase Mixtures for Measurement of BTK:
The 2×BTK/Tyr 01 mixture is prepared in 50 mM HEPES pH 7.5. 0.01% BRIJ-35, 10 mM MgCl2, 1 mM EGTA.
The mixture is then incubated for another 60-minute at room temperature for development reaction. Finally fluorescence is read by plate reader.
as §3

H1299 cells = test: Inhibition of cancer cell growth, MTT assay, H1299; conditions: Homo sapiens, NCI-H1299, 72 h, read-out: IC50 in H1299 cells
Description: as §5, §4

[1] = 30 mg/kg, Intraperitoneal injection

EGFR (ErbB1), sequence (P00533 25-1210): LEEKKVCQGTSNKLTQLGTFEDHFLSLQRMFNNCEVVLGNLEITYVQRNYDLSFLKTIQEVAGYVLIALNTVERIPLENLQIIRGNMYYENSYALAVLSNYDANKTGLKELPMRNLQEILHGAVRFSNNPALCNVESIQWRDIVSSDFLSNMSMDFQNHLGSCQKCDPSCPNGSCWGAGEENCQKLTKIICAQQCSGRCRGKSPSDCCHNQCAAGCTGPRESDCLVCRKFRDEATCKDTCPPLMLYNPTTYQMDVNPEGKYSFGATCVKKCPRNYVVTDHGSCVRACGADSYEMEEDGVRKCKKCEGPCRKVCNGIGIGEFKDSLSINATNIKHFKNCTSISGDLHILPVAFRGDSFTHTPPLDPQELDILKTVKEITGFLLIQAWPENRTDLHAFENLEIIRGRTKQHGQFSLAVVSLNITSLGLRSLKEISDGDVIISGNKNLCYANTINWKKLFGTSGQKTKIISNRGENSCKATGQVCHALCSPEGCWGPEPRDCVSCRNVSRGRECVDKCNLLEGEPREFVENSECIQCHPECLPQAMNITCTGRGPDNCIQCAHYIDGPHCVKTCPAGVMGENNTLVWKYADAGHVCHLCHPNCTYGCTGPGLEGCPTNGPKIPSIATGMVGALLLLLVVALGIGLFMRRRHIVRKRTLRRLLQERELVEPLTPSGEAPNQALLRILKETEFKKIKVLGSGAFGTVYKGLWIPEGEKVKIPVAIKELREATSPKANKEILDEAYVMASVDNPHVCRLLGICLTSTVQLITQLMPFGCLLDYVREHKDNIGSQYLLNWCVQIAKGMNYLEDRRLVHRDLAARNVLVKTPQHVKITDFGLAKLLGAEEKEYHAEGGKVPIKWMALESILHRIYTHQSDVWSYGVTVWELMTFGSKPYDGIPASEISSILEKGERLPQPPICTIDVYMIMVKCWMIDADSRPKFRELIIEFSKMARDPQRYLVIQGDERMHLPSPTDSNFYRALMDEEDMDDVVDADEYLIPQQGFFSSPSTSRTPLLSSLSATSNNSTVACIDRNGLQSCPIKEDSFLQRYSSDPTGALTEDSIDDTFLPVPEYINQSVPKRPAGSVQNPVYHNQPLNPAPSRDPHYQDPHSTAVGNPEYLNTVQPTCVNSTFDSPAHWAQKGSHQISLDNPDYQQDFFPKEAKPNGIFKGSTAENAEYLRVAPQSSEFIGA

Row | inhibition at 0.041 µM (EGFR (ErbB1)) [%] | inhibition at 0.0137 µM (EGFR (ErbB1) T790M L858R) [%] | IC50 (A431 cells) [nM] | IC50 (H1975 cells) [nM] | inhibition at 0.041 µM (FGFR1) [%] | IC50 (HCC827 cells) [nM] | inhibition at 1 µM (EGFR (ErbB1) T790M L858R) [%] | SMILES | IC50 (EGFR (ErbB1) T790M L858R) [nM] | IC50 (H3255 cells) [nM] | IC50 (EGFR (ErbB1)) [nM] | further results
1 | < 50 | > 50 | < 100 | < 100 |  |  |  | C=CC(=O)Nc1cccc(-c2cccc3cnc(Nc4ccc(NC5CN(CCF)C5)cc4)nc23)c1 [Example C103, N-(3-(2-((4-((1-(2-fluoroethyl)azetidin-3-yl)amino)phenyl)amino)quinazolin-8-yl)phenyl)acrylamide] | < 100 | 100 to 500 |  | T/C (relative tumor growth rate) (H1975 tumor xenografts; [1]): 35.8%; Tumor Volume Post-treatment (H1975 tumor xenografts; [1]): 748.7 mm^3; Tumor Volume Pre-treatment (H1975 tumor xenografts; [1]): 150.9 mm^3
2 | > 50 | > 50 | 100 to 500 | < 100 | > 50 |  |  | C=CC(=O)Nc1cccc(-c2cccc3cnc(Nc4ccc(N5CCN(C)CC5)c(OC)c4)nc23)c1 [Example C075, N-(3-(2-((3-methoxy-4-(4-methylpiperazin-1-yl)phenyl)amino)quinazolin-8-yl)phenyl)acrylamide] | < 100 |  |  | 
3 |  |  | 100 to 500 | < 100 |  | < 100 |  | C=CC(=O)Nc1cccc(-c2cccc3cnc(Nc4ccc(N5CCN(C)CC5)c(F)c4F)nc23)c1 [Example C156, N-(3-(2-((2,3-difluoro-4-(4-methylpiperazin-1-yl)phenyl)amino)quinazolin-8-yl)phenyl)acrylamide] | < 100 | > 500 | < 100 | T/C (relative tumor growth rate) (H1975 tumor xenografts; Table 7 study, 60 mg/kg, Oral): 36.8%; Tumor Volume Post-treatment (H1975 tumor xenografts; Table 7 study, 60 mg/kg, Oral): 594 mm3; Tumor Volume Pre-treatment (H1975 tumor xenografts; Table 7 study, 60 mg/kg, Oral): 232 mm3
4 |  |  |  | > 500 | > 50 | > 500 | > 50 | Clc1cccc(-c2cccc3cnc(Nc4ccc(N5CCNCC5)cc4)nc23)c1 [Example C025, 8-(3-chlorophenyl)-N-(4-(piperazin-1-yl)phenyl)quinazolin-2-amine] |  |  |  | 
5 | < 50 | > 50 | > 500 | 100 to 500 | < 50 |  |  | C=CC(=O)Nc1cccc(-c2cccc3cnc(Nc4ccc(N5CCN(C(C)=O)CC5)cc4)nc23)c1Cl [Example C051, N-(3-(2-((4-(4-acetylpiperazin-1-yl)phenyl)amino)quinazolin-8-yl)-2-chlorophenyl)acrylamide] |  |  |  | 
6 |  |  |  | 100 to 500 |  | < 100 |  | C=CC(=O)Nc1cncc(-c2cccc3cnc(Nc4ccc(N5CCN(C(C)=O)CC5)cc4)nc23)c1 [Example C039, N-(5-(2-((4-(4-acetylpiperazin-1-yl)phenyl)amino)quinazolin-8-yl)pyridin-3-yl)acrylamide] |  |  |  | IC50 (H1299 cells): > 500 nM
7 |  |  |  | > 500 | > 50 | > 500 | > 50 | CCC(=O)Nc1cccc(-c2cccc3cnc(Nc4ccc(N5CCN(C)CC5)cc4)nc23)c1 [Example C020, N-(3-(2-((4-(4-methylpiperazin-1-yl)phenyl)amino)quinazolin-8-yl)phenyl)propionamide] |  |  |  | 
8 |  |  |  | > 500 | > 50 | > 500 | > 50 | Fc1ccccc1-c1cccc2cnc(Nc3ccc(N4CCNCC4)cc3)nc12 [Example C031, 8-(2-fluorophenyl)-N-(4-(piperazin-1-yl)phenyl)quinazolin-2-amine] |  |  |  | inhibition at 1 µM (EGFR (ErbB1); read-out: % inhibition against EGFR (Compound at 1 μM)): > 50%
9 |  |  |  | > 500 | > 50 | 100 to 500 | > 50 | Fc1cccc(-c2cccc3cnc(Nc4ccc(N5CCNCC5)cc4)nc23)c1 [Example C027, 8-(3-fluorophenyl)-N-(4-(piperazin-1-yl)phenyl)quinazolin-2-amine] |  |  |  | 
10 | > 50 | > 50 | > 500 | < 100 |  |  |  | C=CC(=O)Nc1cccc(-c2cccc3cnc(Nc4cnc(N5CCN(C)CC5)nc4)nc23)c1 [Example C046, N-(3-(2-((2-(4-methylpiperazin-1-yl)pyrimidin-5-yl)amino)quinazolin-8-yl)phenyl)acrylamide] |  |  |  | IC50 (H1299 cells): > 500 nM

Row | SMILES | inhibition at 0.041 µM (EGFR (ErbB1)) [%] | inhibition at 0.0137 µM (EGFR (ErbB1) T790M L858R) [%] | IC50 (A431 cells) [nM] | IC50 (H1975 cells) [nM] | inhibition at 0.041 µM (FGFR1) [%] | IC50 (HCC827 cells) [nM] | inhibition at 1 µM (EGFR (ErbB1) T790M L858R) [%] | IC50 (EGFR (ErbB1) T790M L858R) [nM] | IC50 (H3255 cells) [nM] | IC50 (EGFR (ErbB1)) [nM] | further results
11 | C=CC(=O)Nc1cccc(-c2cccc3cnc(Nc4ccc(N5CCN(CCO)CC5)cc4F)nc23)c1 [Example C147, N-(3-(2-((2-fluoro-4-(4-(2-hydroxyethyl)piperazin-1-yl)phenyl)amino)quinazolin-8-yl)phenyl)acrylamide] | < 50 |  | 100 to 500 | < 100 |  | < 100 |  | < 100 | > 500 | < 100 | IC50 (BTK): < 100 nM; T/C (relative tumor growth rate) (H1975 tumor xenografts; Table 7 study, 60 mg/kg, Oral): 55.7%; Tumor Volume Post-treatment (H1975 tumor xenografts; Table 7 study, 60 mg/kg, Oral): 898 mm3; Tumor Volume Pre-treatment (H1975 tumor xenografts; Table 7 study, 60 mg/kg, Oral): 240 mm3
12 | C=CC(=O)Nc1cccc(-c2cccc3cnc(Nc4ccc(N5CCN(CCO)CC5)c(F)c4F)nc23)c1 [Example C151, N-(3-(2-((2,3-difluoro-4-(4-(2-hydroxyethyl)piperazin-1-yl)phenyl)amino)quinazolin-8-yl)phenyl)acrylamide] | < 50 |  | 100 to 500 | < 100 |  | < 100 |  | < 100 | > 500 | < 100 | IC50 (BTK): < 100 nM; T/C (relative tumor growth rate) (H1975 tumor xenografts; Table 7 study, 60 mg/kg, Oral): 28.6%; Tumor Volume Post-treatment (H1975 tumor xenografts; Table 7 study, 60 mg/kg, Oral): 462 mm3; Tumor Volume Pre-treatment (H1975 tumor xenografts; Table 7 study, 60 mg/kg, Oral): 229 mm3
13 | C=CC(=O)Nc1cccc(-c2cccc3cnc(Nc4ccc(OCCOC)cc4)nc23)c1 [Example C107, N-(3-(2-((4-(2-methoxyethoxy)phenyl)amino)quinazolin-8-yl)phenyl)acrylamide] |  |  | < 100 | < 100 |  |  |  | < 100 | 100 to 500 | > 500 | IC50 (BTK): < 100 nM; T/C (relative tumor growth rate) (H1975 tumor xenografts; [1]): 63.6%; Tumor Volume Post-treatment (H1975 tumor xenografts; [1]): 1341.7 mm^3; Tumor Volume Pre-treatment (H1975 tumor xenografts; [1]): 150.6 mm^3
